In patent US20260008760A1, “DIPEPTIDYL PEPTIDASE 1 INHIBITORS AND USES THEREOF” (Insmed Incorporated, priority 2024, published 2026):
Read-outs that look alike come from different tables or passages of the source.

Legend:
human DPP1 enzyme = human DPP1 enzyme (Homo sapiens, UniProt P53634); assay: Human DPP1 Enzyme IC50 Assay; assay type: biochemical; set-up: was first proteolytically processed into its mature form using recombinant human cathepsin L; purchased R&D Systems
Procedure: Example 97. Human DPP1 Enzyme IC50 Assay
Recombinant human DPP1 enzyme (R&D Systems; Minneapolis, MN) was first proteolytically processed into its mature form using recombinant human cathepsin L (R&D Systems) in a buffer consisting of 20 mM citric acid pH 4.5, 150 mM NaCl, 1 mM EDTA and 10 mM DTT. Test articles were applied to activated human DPP1 enzyme in Assay Buffer (25 mM MES pH 6.0, 50 mM NaCl, 5 mM DTT) in a total reaction volume of 125 μL. 25 μL of compound in Assay Buffer plus 5% DMSO was first added to 50 μL of activated human DPP1 enzyme at a concentration of 1 ng/μL and allowed to pre-incubate for 10 minutes at 37° C. after which 50 μL of 1000 μM H-Gly-Arg-AMC substrate (Bachem; St. Torrance, CA) was added, giving final substrate concentration of 400 μM and a final DMSO concentration of 1%. Substrate cleavage was measured for 90 minutes at 37° C., with fluorescence at Excitation/Emission 350/450 nm measured every 5 minutes. DPP1 concentration was interpolated based on its activity relative to a standard curve of activated human recombinant DPP1 enzyme. IC50 values for each compound were calculated via the XLFit (IDBS Version 5.3.1.3) Add-On to Microsoft Excel using the four parameter fit equation y={A+[(B−A)]/[1+((C/x)^D)]}, which appears as equation number 205 (4 Parameter Logistic Model or Sigmoidal Dose-Response Model) in XLFit. Default constraints were used for each Parameter. IC50 was defined as the compound concentration at which 50% of enzyme activity was inhibited when compared to the no-compound control.

DPP1 in HL-60 cells = DPP1 in HL-60 cells (Homo sapiens, UniProt P53634); assay: DPP1 Cell IC50 assay; assay type: cell-based; set-up: host or cells: HL-60 cells; details: 60 min pre-incubation, H-Gly-Phe-AFC substrate, average of n runs
Procedure: Example 99. DPP1 Cell IC50 assay
HL-60 cells (ATCC; Manassas, VA) were maintained in RPMI-1640 supplemented with 20% heat-inactivated FBS and 1× Antibiotic Antimycotic (Cytiva; Marlborough, MA). Media was changed every three to four days and cells were not allowed to exceed 1×10^6 cells per mL. Prior to assay, cells were collected by centrifugation at 500 rcf for 3 minutes, resuspended in PBS and counted. Cells were diluted in PBS to a concentration of 5×10^5 live cells per mL and transferred to black 96-well plates for assay, 60 μL per well. Test articles were diluted in PBS plus 0.5% DMSO, and 20 μL was added to each assay well. Compound was allowed to pre-incubate with cells with gentle shaking at 100 rpm for 60 minutes at 37° C. in a cell culture incubator maintained at 5% CO2, after which 20 μL of 500 μM H-Gly-Phe-AFC substrate (MP Biomedicals; Solon, OH) was added to each well. Plates were returned to the incubator with shaking at 100 rpm for 30 minutes, after which fluorescence was measured at Excitation/Emission 400/505 nm. % Inhibition was calculated from RFU values compared to control cell wells that received only PBS plus 0.5% DMSO. IC50 values for each compound were calculated via the XLFit (IDBS Version 5.3.1.3) Add-On to Microsoft Excel using the four parameter fit equation y=(A+((B−A)/(1+((C/x)^D)))), which appears as equation number 205 (4 Parameter Logistic Model or Sigmoidal Dose-Response Model) in XLFit. IC50 was defined as the compound concentration at which 50% of enzyme activity was inhibited when compared to the no-compound control.

[1] = activated recombinant human DPP1, 400 μM H-Gly-Arg-AMC, 10 minutes pre-incubation at 37° C., pH 6.0, average of n runs, read-out: Avg. IC50 (Human DPP1 enzyme IC50 value ranges)
[2] = read-out: Avg. IC50 (DPP1 Cell IC50 value ranges)

DPP1 in HL-60 cells, sequence (P53634 25-463): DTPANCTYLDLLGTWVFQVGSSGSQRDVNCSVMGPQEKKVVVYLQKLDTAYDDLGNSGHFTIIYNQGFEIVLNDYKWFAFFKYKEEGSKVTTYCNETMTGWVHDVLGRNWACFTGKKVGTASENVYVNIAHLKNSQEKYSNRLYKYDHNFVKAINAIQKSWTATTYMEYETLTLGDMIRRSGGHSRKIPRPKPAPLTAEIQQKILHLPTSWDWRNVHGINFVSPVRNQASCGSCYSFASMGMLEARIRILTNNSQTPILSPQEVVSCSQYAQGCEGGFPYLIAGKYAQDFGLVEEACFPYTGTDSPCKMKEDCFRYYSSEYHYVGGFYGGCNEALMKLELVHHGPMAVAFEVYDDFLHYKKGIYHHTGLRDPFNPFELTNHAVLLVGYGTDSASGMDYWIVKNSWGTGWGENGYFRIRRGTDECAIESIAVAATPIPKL
human DPP1 enzyme, sequence (P53634 25-134 limits assumed): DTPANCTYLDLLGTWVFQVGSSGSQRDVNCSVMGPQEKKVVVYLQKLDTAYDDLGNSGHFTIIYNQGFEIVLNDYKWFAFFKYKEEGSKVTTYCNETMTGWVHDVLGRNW
human DPP1 enzyme, sequence (P53634 231-394 limits assumed): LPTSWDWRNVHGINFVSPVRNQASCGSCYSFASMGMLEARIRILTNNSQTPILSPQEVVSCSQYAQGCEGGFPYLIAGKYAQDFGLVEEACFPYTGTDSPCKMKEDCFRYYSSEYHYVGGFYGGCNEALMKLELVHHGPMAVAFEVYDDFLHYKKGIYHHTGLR
human DPP1 enzyme, sequence (P53634 395-463 limits assumed): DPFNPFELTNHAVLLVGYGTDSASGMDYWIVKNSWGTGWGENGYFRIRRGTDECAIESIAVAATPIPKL

## COC1CNC[C@@H](C(=O)N[C@H](C#N)Cc2ccc(-c3ccc4c(F)nn(C)c4c3)cc2F)OC1 (some centres unmarked) [Compound A164]
Human DPP1 enzyme; [1]
  IC50: < 5 nM
DPP1 in HL-60 cells; [2]
  IC50: < 1 nM

## COC1CNC[C@@H](C(=O)N[C@H](C#N)Cc2ccc(-c3ccc4c(F)nn(C)c4c3)cc2)OC1 (some centres unmarked) [Compound A158]
Human DPP1 enzyme; [1]
  IC50: < 5 nM
DPP1 in HL-60 cells; [2]
  IC50: < 1 nM

## CO[C@H]1CCO[C@H](C(=O)N[C@H](C#N)Cc2ccc(-c3ccc4c(c3)CCC(=O)N4C)cc2F)CNC1 [Compound A153]
Human DPP1 enzyme; [1]
  IC50: < 5 nM
DPP1 in HL-60 cells; [2]
  IC50: < 1 nM

## CO[C@H]1CCO[C@H](C(=O)N[C@H](C#N)Cc2ccc(-c3ccc(C#N)cc3)cc2)CNC1 [Compound F1, (2S,6S)—N-[(1S)-1-cyano-2-{4′-cyano-[1,1′-biphenyl]-4-yl}ethyl]-6-methoxy-1,4-oxazocane-2-carboxamide]
Human DPP1 enzyme; [1]
  IC50: > 15 nM
DPP1 in HL-60 cells; [2]
  IC50: > 2.5 nM

## N#C[C@H](Cc1ccc(-c2cc3n(c2)CCCNC3=O)cc1)NC(=O)[C@@H]1CNCCCO1 [Compound A12, (2S)—N-[(1S)-1-cyano-2-(4-{1-oxo-2H,3H,4H,5H-pyrrolo[1,2-a][1,4]diazepin-8-yl}phenyl)ethyl]-1,4-oxazepane-2-carboxamide]
Human DPP1 enzyme; [1]
  IC50: > 15 nM
DPP1 in HL-60 cells; [2]
  IC50: > 2.5 nM

## N#Cc1ccc2c(c1)COc1c-2ccc(CC(C#N)NC(=O)[C@@H]2CNCCCO2)c1F (stereo partly drawn) [Compound B4, (2S)—N-(1-cyano-2-{8-cyano-4-fluoro-6H-benzo[c]chromen-3-yl}ethyl)-1,4-oxazepane-2-carboxamide]
Human DPP1 enzyme
  IC50: > 15 nM
DPP1 in HL-60 cells; Avg. IC50 (DPP1 Cell IC50 value ranges)
  IC50: > 2.5 nM

## Cc1cn2cc(-c3cc4sc(C[C@H](C#N)NC(=O)[C@@H]5CNCCCCO5)cc4s3)cc2c(C)n1 (single isomer, unassigned) [Compound A31]
Human DPP1 enzyme; [1]
  IC50: > 15 nM
DPP1 in HL-60 cells; [2]
  IC50: > 2.5 nM

## CO[C@@H]1CCNC[C@@H](C(=O)NC(C#N)Cc2cnc(-c3ccc4c(n3)CCCN4)s2)OC1 (stereo partly drawn) [Compound A39, (2S,7R)—N-{1-cyano-2-[2-(5,6,7,8-tetrahydro-1,5-naphthyridin-2-yl)-1,3-thiazol-5-yl]ethyl}-7-methoxy-1,4-oxazocane-2-carboxamide]
Human DPP1 enzyme; [1]
  IC50: > 15 nM
DPP1 in HL-60 cells; [2]
  IC50: > 2.5 nM

## N#C[C@H](Cc1ccc(C23CCC(C#N)(CC2)CC3)cc1)NC(=O)[C@@H]1CNCCCO1 [Compound 4]
Human DPP1 enzyme; [1]
  IC50: > 15 nM
DPP1 in HL-60 cells; [2]
  IC50: > 2.5 nM

## N#C[C@H](Cc1ccc(-c2cnc3c(c2)NCCC3)cc1)NC(=O)[C@@H]1CNCCCO1 [Compound A41, (2S)—N-[(1S)-1-cyano-2-[4-(5,6,7,8-tetrahydro-1,5-naphthyridin-3-yl)phenyl]ethyl]-1,4-oxazepane-2-carboxamide]
Human DPP1 enzyme; [1]
  IC50: > 15 nM
DPP1 in HL-60 cells; [2]
  IC50: > 2.5 nM

## N#C[C@H](Cc1ccc(-c2ccc(-c3nnc(N)s3)o2)cc1)NC(=O)[C@@H]1CNCCCO1 [Compound D1, (2S)—N-[(1S)-2-{4-[5-(5-amino-1,3,4-thiadiazol-2-yl)furan-2-yl]phenyl}-1-cyanoethyl]-1,4-oxazepane-2-carboxamide]
Human DPP1 enzyme; [1]
  IC50: > 15 nM
DPP1 in HL-60 cells; [2]
  IC50: > 2.5 nM

## CO[C@@H]1CCNC[C@@H](C(=O)N[C@H](C#N)Cc2cc3cc(-c4cc5c(C)nc(C)cn5c4)ccc3s2)OC1 (single isomer, unassigned) [Compound A51]
Human DPP1 enzyme; [1]
  IC50: 5 to 15 nM
DPP1 in HL-60 cells; [2]
  IC50: 1 to 2.5 nM

## COC1CNC[C@@H](C(=O)N[C@H](C#N)Cc2ccc(-c3ccc4c(c3)CCC(=O)N4C)cc2F)OC1 (some centres unmarked) [Compound A152]
Human DPP1 enzyme; [1]
  IC50: < 5 nM
DPP1 in HL-60 cells; [2]
  IC50: < 1 nM

## Cn1c(=O)oc2cc3c(cc21)-c1cc(F)c(CC(C#N)NC(=O)[C@@H]2CNCCCO2)cc1OC3 (stereo partly drawn) [Compound C1, (2S)—N-(1-cyano-2-{4-fluoro-15-methyl-14-oxo-8,13-dioxa-15-azatetracyclo[8.7.0.0^{2,7}0.0^{12,16}]heptadeca-1(10),2(7),3,5,11,16-hexaen-5-yl}ethyl)-1,4-oxazepane-2-carboxamide]
Human DPP1 enzyme; [1]
  IC50: < 5 nM
DPP1 in HL-60 cells; [2]
  IC50: > 2.5 nM

## CO[C@@H]1CCNC[C@@H](C(=O)NC(C#N)Cc2cc3cc(-c4cc5c(C)nc(C)cn5c4)ccc3s2)OC1 (single isomer, unassigned) [Compound A52]
Human DPP1 enzyme; [1]
  IC50: > 15 nM
DPP1 in HL-60 cells; [2]
  IC50: > 2.5 nM

## N#C[C@H](Cc1ccc(-c2ccc3c(c2)C2(CCN(c4nccs4)CC2)SC3)cc1)NC(=O)[C@@H]1CNCCCO1 [Compound I16]
Human DPP1 enzyme; [1]
  IC50: > 15 nM
DPP1 in HL-60 cells; [2]
  IC50: > 2.5 nM
